In patent US20140031389A1, “SCREENING METHODS AND PHARMACEUTICAL COMPOSITIONS FOR THE TREATMENT OF INFLAMMATORY BOWEL DISEASES” (INSERM (INSTITUT NATIONAL DE LA SANTE ET DE LA RECHERCHE …, priority 2011, published 2014):

What was measured:
IL10/Nox1^dKO mice = experiment: Salubrinal treatment of spontaneous colitis in IL10/Nox1^dKO mice; type: in vivo
Source text: All SPF-reared C57B1/6-IL10/Nox1^dKO mice developed spontaneously colitis at 6/7 weeks and disease activity index (DAI) scores which became more severe with age, including diarrhea, high incidence of rectal bleeding, change in body and colon weights, and prolapses. None of WT and single-KO mice developed colitis during the time frame studied. […] We next measured epithelial permeability of FITC-dextran in segments of distal colon and indigenous bacterial translocation was identified in the spleen of 7 and 12-week-old mice. […] Consistent with previous findings in patients with UC^30,31, IL10/Nox1^dKO mice expressed almost 50% of microRNAs relevant in defining UC signature.
(§1) To assess the pathogenic role of goblet cells in UC, WT and Nox1^KO mice were subjected to oral administration of DSS or rectal administration of TNBS. […] IRE1beta and ATF6alpha branch signaling were extended in colonic epithelial cells as evidenced by the increased XBP-1 mRNA splicing, the induction of GRP78, GRP94, PDI at both mRNA and protein levels, and dilated cisternae and gross distortion of the ER in goblet cells. […] Consistent with reduced eIF2α phosphorylation, increased expression of PPP1R15A/GADD34, a stress-inducible protein that recruits the catalytic subunit of protein phosphatase 1 and promotes elF2alpha dephosphorylation, was detected in agreement with our previous data in humans^1. EIF2alpha phosphorylation is cytoprotective during ERS, because cells are sensitized to cell death when this pathway is genetically ablated^33 and protected when it is ectopically enforced^34. To test whether a selective pharmacological inhibitor of GADD34-mediated elF2alpha dephosphorylation may alleviate colitis, IL10/Nox1^dKO mice were treated with 1 mg/kg salubrinal^35 for up to three weeks.

[1] = tested on: GADD34-mediated elF2alpha dephosphorylation; experiment: elF2alpha phosphorylation and ER stress markers in colonic mucosa of salubrinal-treated IL10/Nox1^dKO mice; type: in vivo
Source text: as §1

[2] = IL10/Nox1^dKO mice, 1 mg/kg salubrinal for up to three weeks
[3] = salubrinal-treated IL10/Nox1^dKO mice, 1 mg/kg for up to three weeks

## O=C(/C=C/c1ccccc1)NC(NC(=S)Nc1cccc2cccnc12)C(Cl)(Cl)Cl (stereo not drawn) [salubrinal, 3-phenyl-N-[2,2,2-trichloro-1-[[(8-quinolinylamino)thioxomethyl]amino]ethyl]-2-propenamide]
IL10/Nox1^dKO mice; [2]
  histological colitis score throughout the colon: strongly reduced
  immune cell infiltration: markedly prevented
  mucosal architecture and goblet cells: restored intact mucosal architecture with normal goblet cells
IL10/Nox1^dKO mice; IL10/Nox1^dKO mice, 1 mg/kg salubrinal for up to three weeks, anti-apoptotic activity on CHOP expression
  apoptosis of colonic mucosa: protected colonic mucosa against apoptosis
IL10/Nox1^dKO mice; [3]
  amount of colonic and splenic Treg cells: strongly decreased to baseline
  levels of proinflammatory cytokines: strongly decreased to baseline
[1]; colonic mucosa, IL10/Nox1^dKO mice, 1 mg/kg salubrinal for up to three weeks
  elF2alpha phosphorylation: robust elF2alpha phosphorylation
[1]; [3]
  Grp78/Bip and Grp94 expression: trend toward reduced
  localisation of salubrinal-induced phosphorylation of elF2alpha: mainly detected in colonic epithelial cells
